Data published in patent publication US20250099407A1, “2-AMINO BENZOPHENONE DERIVATIVES FOR TARGETED FERROPTOSIS INDUCTION IN CANCER THERAPY” (INDIAN INSTITUTE OF TECHNOLOGY KANPUR, priority 2023, published 2025).
Read-outs that look alike come from different tables or passages of the source.

Assays:
[1] = system: Huh-7 cells; test: Cell viability, luminescence-based CellTiter-Glo assay, Huh-7 cells; conditions: Homo sapiens, Huh-7, Huh-7 cells
Method: The viability of Huh-7 cells was recorded using a luminescence-based CellTiter-Glo® assay. The screening concentration of the molecules were 10 μM with or without Fer-1 (10 μM) in DMEM media (>0.1% DMSO as control).
Ferroptosis is a unique form of cell death mechanism mediated by the accumulation of lipid peroxides in cells which is distinct from healthy cells' apoptosis, a programmed […] route. We aimed to exploit the induction of ferroptosis in cancer cells using covalent small molecules as a potential strategy for cancer therapeutic development. […] We used various amide bond formation chemistry to construct the library members and these molecules are well characterized by various spectroscopic and mass spectrometry techniques. Once confirmed, these thiol reactive library members were screened in a cancer cell viability assay in combination with ferrostatin-1 (Fer-1), a ferroptosis inhibitor as depicted in FIG. 11. […] We have screened a total of ˜50 electrophilic small molecules to prevent the proliferation of hepatocellular carcinoma (Huh-7 cells) in combination with and without Fer-1. From our initial screening, we identified haloacetamides of 2-aminoalkylbenzophenone as potential ferroptosis inducers as depicted in FIG. 11.
(§1) The viability of screened cancer cells was recorded using a luminescence-based CellTiter-Glo® assay for the ATP quantification. The screening concentration of the molecule ranged from 100/10 μM to 45/4.5 nM with an 8-point-3-fold dilution series in DMEM media (>0.1% DMSO as control). Each experiment was conducted in more than two biological replicates with three technical replicates. The error bar is a representation of standard deviation among the technical replicates.
The viability of screened cancer cells was recorded using a luminescence-based CellTiter-Glo® assay for the ATP quantification. The screening concentration of IITK3002 ranged from 10 μM to 4.5 nM with an 8-point-3-fold dilution series in DMEM media (>0.1% DMSO as control). Each experiment was conducted in more than two biological replicates with three technical replicates. The error bar is a representation of standard deviation among the technical replicates. […]
a. Electrophilic Warhead Optimization: Once we identified 2-benzoylphenyl-a-haloacetamide as the lead scaffold, we have investigated the structure-activity-relationship analysis to precisely capture the effect of various chemical handles of the scaffold and use the knowledge to improve the overall potency and selectivity of this molecule to prevent cancer cell proliferation. First, we changed the haloacetamide electrophilic unit with various other electrophiles with a characteristic high, moderate, and weak reactivity with thiols when compared to chloroacetamide. Therefore, we opted vinylsulfonamide (highly reactivity), acrylamide (moderate reactivity), and phenoxyacetamides (weak reactivity warheads) for incorporation in the place of haloacetamide warhead of the top hit scaffold. Once synthesized, these molecules were evaluated to assess their antiproliferative potency against Huh-7 cells (Table 2). As expected, the introduction of weakly reactive electrophilic warheads, phenoxyactamides, completely lost the activity against Huh-7 cells. […] Perhaps, the secondary interactions of the electrophilic warhead with the target proteins might play additional roles. Therefore, we shifted our focus to optimize the rest of the core scaffold for further SAR analysis. b. Role of N-Substitutions: Next, we synthesized the NH-derivative of haloacetamides to capture the importance of N-alkylation on the activity of our hit molecule. […] Perhaps the hydrogen bonding induced planarity around the warhead influences the molecules' weakened potency. Conversely, the additional flexibility in the lead molecule (tertiary amide) might contribute to the strong antiproliferative activity of the hit molecule. […]

[2] = system: U2OS; test: Cell viability, CellTiter-Glo assay, U2OS; type: cell-based; conditions: Homo sapiens
Method: as §1
The viability of screened cancer cells was recorded using a luminescence-based CellTiter-Glo® assay for the ATP quantification. The screening concentration of IITK3002 ranged from 10 μM to 4.5 nM with an 8-point-3-fold dilution series in DMEM media (>0.1% DMSO as control). Each experiment was conducted in more than two biological replicates with three technical replicates. The error bar is a representation of standard deviation among the technical replicates.
a. […] In parallel, we have also synthesized the bromoacetamide (IITK3002) version of the lead molecules which is slightly more reactive with thiol nucleophiles when compared to chlorooacetamide warheads as depicted in FIG. 13. […] In addition, we also evaluated the molecules' antiproliferative potency against a panel of twelve different cancer phenotypes. The set of cancer cell lines included liver, breast, colon, myeloma, bone, blood, skin, brain and prostate lineages (FIG. 2, 3, Table 1).

[3] = system: A549; test: Cell viability, A549; type: cell-based; conditions: Homo sapiens
[4] = cell viability, read-out: EC50 Huh-7

EC50 [1, 4] [nM] | Structure (SMILES) | other results
> 20000 | C#CCN(C(=O)COc1c(F)c(F)c(F)c(F)c1F)c1ccccc1C(=O)c1ccccc1 [IITK3031, N-(2-benzoylphenyl)-2-(perfluorophenoxy)-N-(prop-2-yn-1-yl)acetamide] | –
79 | CN(C(=O)CBr)c1ccccc1C(=O)c1ccc(-c2ccc(C=O)cc2)cc1 [IITK3059, 2-bromo-N-(2-(4′-formyl-[1,1′-biphenyl]-4-carbonyl)phenyl)-N-methylacetamide] | –
36 | CN(C(=O)CCl)c1ccccc1C(=O)c1ccc(-c2cccc(Oc3ccccc3)c2)cc1 [IITK3062, 2-chloro-N-methyl-N-(2-(3′-phenoxy-[1,1′-biphenyl]-4-carbonyl)phenyl)acetamide] | –
– | C=CCN(c1ccccc1C(=O)c1ccccc1)S(=O)(=O)C=C [IITK3027, N-allyl-N-(2-benzoylphenyl)ethenesulfonamide] | EC50 [2]: 1220 nM; EC50 [3]: 1920 nM
> 20000 | CN(C(=O)COc1c(F)c(F)c(F)c(F)c1F)c1ccccc1C(=O)c1ccccc1 [IITK3007, N-(2-benzoylphenyl)-N-methyl-2-(perfluorophenoxy)acetamide] | –
12.1 | CN(C(=O)CBr)c1ccccc1C(=O)c1ccc(-c2ccc(F)cc2F)cc1 [IITK3067, 2-bromo-N-(2-(2′,4′-difluoro-[1,1′-biphenyl]-4-carbonyl)phenyl)-N-methylacetamide] | –
24.5 | CN(C(=O)CBr)c1ccccc1C(=O)c1ccc(-c2cccc(Oc3ccccc3)c2)cc1 [IITK3063, 2-bromo-N-methyl-N-(2-(3′-phenoxy-[1,1′-biphenyl]-4-carbonyl)phenyl)acetamide] | –
26 | CN(C(=O)CCl)c1ccccc1C(=O)c1ccc(-c2ccc(C#N)cc2)cc1 [IITK3060, 2-chloro-N-(2-(4′-cyano-[1,1′-biphenyl]-4-carbonyl)phenyl)-N-methylacetamide] | –
– | C=CCN(C(=O)CCl)c1ccccc1C(=O)c1ccccc1 [IITK3018, N-allyl-N-(2-benzoylphenyl)-2-chloroacetamide] | EC50 [2]: 600 nM; EC50 [3]: 2400 nM
32800 | C#CCOC(=O)Nc1ccc(N(C)C(=O)CCl)c(C(=O)c2ccccc2)c1 [IITK3052, prop-2-yn-1-yl (3-benzoyl-4-(2-chloro-N-methylacetamido)phenyl)carbamate] | EC50 [2]: 2920 nM; EC50 [3]: 4180 nM
18 | Cc1ccc(-c2ccc(C(=O)c3ccccc3N(C)C(=O)CBr)cc2)cc1 [IITK3057, 2-bromo-N-methyl-N-(2-(4′-methyl-[1,1′-biphenyl]-4-carbonyl)phenyl)acetamide] | –
> 20000 | C#CCN(C(=O)COc1ccc(C(C)(C)C)cc1)c1ccccc1C(=O)c1ccccc1 [IITK3032, N-(2-benzoylphenyl)-2-(4-(tert-butyl)phenoxy)-N-(prop-2-yn-1-yl)acetamide] | –
8220 | C=CS(=O)(=O)N(C)c1ccccc1C(=O)c1ccc(-c2ccccc2)cc1 [IITK3070, N-(2-([1,1′-biphenyl]-4-carbonyl)phenyl)-N-methylethenesulfonamide] | –
19 | COc1ccc(-c2ccc(C(=O)c3ccccc3N(C)C(=O)CCl)cc2)cc1 [IITK3064, 2-chloro-N-(2-(4′-methoxy-[1,1′-biphenyl]-4-carbonyl)phenyl)-N-methylacetamide] | –
– | C=CCN(C(=O)CBr)c1ccccc1C(=O)c1ccccc1 [IITK3019, N-allyl-N-(2-benzoylphenyl)-2-bromoacetamide] | EC50 [2]: 30 nM; EC50 [3]: 300 nM
2 | CN(C(=O)CCl)c1ccccc1C(=O)c1ccc(-c2ccccc2)cc1 [IITK3055, N-(2-([1,1′-biphenyl]-4-carbonyl)phenyl)-2-chloro-N-methylacetamide] | EC50 ([1]; antiproliferative activity, read-out: EC50 in Huh-7 cells): 2 nM

EC50 [1, 4] [nM] | Structure (SMILES) | other results
8.83 | CN(C(=O)CCl)c1ccccc1C(=O)c1ccc(-c2ccc(F)cc2F)cc1 [IITK3066, 2-chloro-N-(2-(2′,4′-difluoro-[1,1′-biphenyl]-4-carbonyl)phenyl)-N-methylacetamide] | –
117 | CN(C(=O)CCl)c1ccccc1C(=O)c1ccc(-c2ccc(C=O)cc2)cc1 [IITK3058, 2-chloro-N-(2-(4′-formyl-[1,1′-biphenyl]-4-carbonyl)phenyl)-N-methylacetamide] | –
4820 | CN(C(=O)CBr)c1ccccc1C(=O)c1ccc(-c2ccc(C#N)cc2)cc1 [IITK3061, 2-bromo-N-(2-(4′-cyano-[1,1′-biphenyl]-4-carbonyl)phenyl)-N-methylacetamide] | –
– | C=CCN(C(=O)C=C)c1ccccc1C(=O)c1ccccc1 [IITK3026, N-allyl-N-(2-benzoylphenyl)acrylamide] | EC50 [3]: 32800 nM
> 138 | C#CCN(C(=O)CCl)c1ccccc1C(=O)c1ccc(-c2ccccc2)cc1 [IITK3072, N-(2-([1,1′-biphenyl]-4-carbonyl)phenyl)-2-chloro-N-(prop-2-yn-1-yl)acetamide] | –
16 | COc1ccc(-c2ccc(C(=O)c3ccccc3N(C)C(=O)CBr)cc2)cc1 [IITK3065, 2-bromo-N-(2-(4′-methoxy-[1,1′-biphenyl]-4-carbonyl)phenyl)-N-methylacetamide] | –
> 100000 | C=CCN(C(=O)COc1ccc([N+](=O)[O-])cc1)c1ccccc1C(=O)c1ccccc1 [IITK3025, N-allyl-N-(2-benzoylphenyl)-2-(4-nitrophenoxy)acetamide] | –
3.5 | CN(C(=O)CBr)c1ccccc1C(=O)c1ccc(-c2cccc([N+](=O)[O-])c2)cc1 [IITK3069, 2-bromo-N-methyl-N-(2-(3′-nitro-[1,1′-biphenyl]-4-carbonyl)phenyl)acetamide] | –
< 100 | C#CCN(C(=O)CBr)c1ccccc1C(=O)c1ccc(-c2ccccc2)cc1 [IITK3071, N-(2-([1,1′-biphenyl]-4-carbonyl)phenyl)-2-bromo-N-(prop-2-yn-1-yl)acetamide] | –
13 | CN(C(=O)CBr)c1ccccc1C(=O)c1ccc(-c2ccccc2)cc1 [IITK3056, N-(2-([1,1′-biphenyl]-4-carbonyl)phenyl)-2-bromo-N-methylacetamide] | –
3.06 | CN(C(=O)CCl)c1ccccc1C(=O)c1ccc(-c2cccc([N+](=O)[O-])c2)cc1 [IITK3068, 2-chloro-N-methyl-N-(2-(3′-nitro-[1,1′-biphenyl]-4-carbonyl)phenyl)acetamide] | –
– | C=CCN(C(=O)COc1c(F)c(F)c(F)c(F)c1F)c1ccccc1C(=O)c1ccccc1 [IITK3022, N-allyl-N-(2-benzoylphenyl)-2-(perfluorophenoxy)acetamide] | EC50 [2]: 1450 nM; EC50 [3]: 3370 nM
– | O=C(CBr)Nc1ccccc1C(=O)c1ccccc1 [IITK3013, N-(2-benzoylphenyl)-2-bromoacetamide] | EC50 [2]: 1520 nM
> 20000 | O=C(COc1ccccc1)Nc1ccccc1C(=O)c1ccccc1 [IITK3014, N-(2-benzoylphenyl)-2-phenoxyacetamide] | EC50 [2]: > 20000 nM
11700 | C#CCOC(=O)Nc1ccc(N(C)C(=O)CBr)c(C(=O)c2ccccc2)c1 [IITK3053, prop-2-yn-1-yl (3-benzoyl-4-(2-bromo-N-methylacetamido)phenyl)carbamate] | EC50 [2]: 770 nM; EC50 [3]: 1540 nM

Structure (SMILES) | EC50 [1, 4] [nM] | other results
CN(C(=O)CCl)c1ccc([N+](=O)[O-])cc1C(=O)c1ccccc1 [IITK3073, N-(2-benzoyl-4-nitrophenyl)-2-chloro-N-methylacetamide] | > 20000 | –
